Test results published in patent US20250230193A1, “CYCLIC COMPOUND HAVING SELECTIVE KRAS INHIBITORY EFFECT ON HRAS AND NRAS” (CHUGAI SEIYAKU KABUSHIKI KAISHA, priority 2022, published 2025).
*1 amine or outer side, *2 acyl side, *3 side chain or, on linkers, in order; H or OH if unused. Where a SMILES comes first, the peptide text is derived from it. Bridges are numbered along the chain shown (N, C = ends). [ ]: non-standard residue; d: D form. The star is where a group is joined. hPhe(3,5-F2-4-CF3) = N[C@@H](CCc1cc(F)c(C(F)(F)F)c(F)c1)C(=O)O; hPhe(3-Cl-4-CF3) = N[C@@H](CCc1ccc(C(F)(F)F)c(Cl)c1)C(=O)O; X17 = CCCCN([C@@H](Cc1ccc(C(F)(F)F)cc1)C(=O)[*:2])[*:1]; NPrPhe(4-CF3) = CCCN[C@@H](Cc1ccc(C(F)(F)F)cc1)C(=O)O; NEtPhe(4-CF3) = CCN[C@@H](Cc1ccc(C(F)(F)F)cc1)C(=O)O; NMeGly(cPent) = CN[C@H](C(=O)O)C1CCCC1; Nva(3-Et) = CCC(CC)[C@H](N)C(=O)O; Hyp = O=C(O)[C@@H]1C[C@@H](O)CN1; NMeD = CN[C@@H](CC(=O)O)C(=O)O; NMeL = CN[C@@H](CC(C)C)C(=O)O; Ac6c = NC1(C(=O)O)CCCCC1; Morpholide = C1CN(*)CCO1; NMeA = CN[C@@H](C)C(=O)O; Ac5c = NC1(C(=O)O)CCCC1; Aze = O=C(O)[C@@H]1CCN1; Sar = CNCC(=O)O

Tests used:
[1] = biological target: GDP-bound NRAS wild-type protein (Homo sapiens, UniProt P01111); assay: Binding to NRAS by surface plasmon resonance (SPR), Single Cycle Kinetics
[2] = biological target: GDP-bound HRAS wild-type protein (Homo sapiens, UniProt P01112); assay: Binding to HRAS by surface plasmon resonance (SPR), Single Cycle Kinetics
Chain of GDP-bound HRAS wild-type protein (P01112 whole entry): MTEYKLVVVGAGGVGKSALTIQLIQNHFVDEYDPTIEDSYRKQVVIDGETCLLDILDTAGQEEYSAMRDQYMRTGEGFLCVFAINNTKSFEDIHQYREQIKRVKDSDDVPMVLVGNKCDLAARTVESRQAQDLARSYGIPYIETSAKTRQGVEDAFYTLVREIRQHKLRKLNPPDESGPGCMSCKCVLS

Chain of GDP-bound NRAS wild-type protein (P01111 whole entry): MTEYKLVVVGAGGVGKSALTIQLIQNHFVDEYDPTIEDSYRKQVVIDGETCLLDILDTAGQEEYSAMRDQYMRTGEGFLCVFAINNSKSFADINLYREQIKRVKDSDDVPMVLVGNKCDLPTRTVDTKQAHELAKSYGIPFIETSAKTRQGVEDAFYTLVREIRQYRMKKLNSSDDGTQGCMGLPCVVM

CC[C@H](C)[C@@H]1NC(=O)[C@H](CC(C)C)N(C)C(=O)C[C@@H](C(=O)N2CCOCC2)N(C)C(=O)[C@H](C2CCCC2)N(C)C(=O)C2(CCCCC2)NC(=O)[C@@H]2CCCN2C(=O)[C@H](CCc2ccc(C(F)(F)F)c(Cl)c2)NC(=O)CN(C)C(=O)[C@H](Cc2ccc(C(F)(F)F)cc2)N(CC)C(=O)[C@@H]2CCN2C(=O)[C@H](C)N(C)C1=O [PP0222] ([NMeL]I[NMeA][Aze][NEtPhe(4-CF3)][Sar][hPhe(3-Cl-4-CF3)]P[Ac6c][NMeGly(cPent)][NMeD]-Morpholide; lactam N-11)
NRAS/KRAS (ratio of KD for GDP-bound NRAS wild-type to KD for KRAS) ([1]; SPR): C (A compound having a KD ratio of 0.1 or more and less than 3 is denoted as C) | HRAS/KRAS (ratio of KD for GDP-bound HRAS wild-type to KD for KRAS) ([2]; SPR): C (A compound having a KD ratio of 0.1 or more and less than 3 is denoted as C)

CCC[C@H]1C(=O)N[C@@H](CC(C)C)C(=O)N(CCOC)CC(=O)N(C)[C@H]2C/C=C\CCN(C2=O)[C@@H](Cc2ccc(C)cc2)C(=O)N(C)CC(=O)N[C@@H](CCc2ccc(C(F)(F)F)c(OC)c2)C(=O)N2C[C@H](OCC)C[C@H]2C(=O)NC2(CC(C)(C)C2)C(=O)N(C)[C@@H](C2CCCC2)C(=O)N(C)[C@H](C(=O)N(C)C)CC(=O)N1C [PP2522]
NRAS/KRAS (ratio of KD value with respect to GDP-bound NRAS wild-type protein to KD value with respect to KRAS) ([1]; class symbols): B (a compound having 3 or more and less than 10 is denoted as B) | HRAS/KRAS (ratio of KD value with respect to GDP-bound HRAS wild-type protein to KD value with respect to KRAS) ([2]; class symbols): B (a compound having 3 or more and less than 10 is denoted as B)

CCC[C@H]1C(=O)N[C@@H]([C@@H](C)CC)C(=O)N(C2CC2)CC(=O)N(C)[C@H]2C/C=C\CCN(C2=O)[C@@H](Cc2ccc(C)cc2)C(=O)N(C)CC(=O)N[C@@H](CCc2ccc(Cl)c(Cl)c2)C(=O)N2C[C@H](OCC)C[C@H]2C(=O)NC2(CC(C)(C)C2)C(=O)N(C)[C@@H](C(CC)CC)C(=O)N(C)[C@H](C(=O)N(C)C)CC(=O)N1C [PP2561]
NRAS/KRAS (ratio of KD value with respect to GDP-bound NRAS wild-type protein to KD value with respect to KRAS) ([1]; class symbols): AA (a compound having 20 or more is denoted as AA) | HRAS/KRAS (ratio of KD value with respect to GDP-bound HRAS wild-type protein to KD value with respect to KRAS) ([2]; class symbols): A (a compound having 10 or more and less than 20 is denoted as A)

CCOC[C@H]1C(=O)N[C@@H]([C@@H](C)CC)C(=O)N(C)CC(=O)N(C)[C@H]2C/C=C\CCN(C2=O)[C@@H](CC2CCCCC2)C(=O)N(C)CC(=O)N[C@@H](CCc2cc(F)c(C(F)(F)F)c(F)c2)C(=O)N2C[C@H](OCC)C[C@H]2C(=O)NC2(CC(C)(C)C2)C(=O)N(C)[C@@H](C(CC)CC)C(=O)N(C)[C@H](C(=O)N(C)C)CC(=O)N1C [PP2479]
NRAS/KRAS (ratio of KD value with respect to NRAS to KD value with respect to KRAS) ([1]; SPR, GDP-bound NRAS wild-type vs GDP-bound KRAS wild-type): AA (a compound having 20 or more is denoted as AA) | HRAS/KRAS (ratio of KD value with respect to HRAS to KD value with respect to KRAS) ([2]; SPR, GDP-bound HRAS wild-type vs GDP-bound KRAS wild-type): A (a compound having 10 or more and less than 20 is denoted as A)

CC[C@H](C)[C@@H]1NC(=O)[C@H](CC(C)C)N(C)C(=O)C[C@@H](C(=O)N2CCOCC2)N(C)C(=O)[C@H](C2CCCC2)N(C)C(=O)C2(CCCC2)NC(=O)[C@@H]2CCCN2C(=O)[C@H](CCc2ccc(C(F)(F)F)c(Cl)c2)NC(=O)CN(C)C(=O)[C@H](Cc2ccccc2)N2CCCCC[C@@H](C2=O)N(C)C(=O)CN(C)C1=O [PP0611]
NRAS/KRAS (ratio of KD value with respect to GDP-bound NRAS wild-type protein to KD value with respect to KRAS) ([1]; SPR): B (a compound having 3 or more and less than 10 is denoted as B) | HRAS/KRAS (ratio of KD value with respect to GDP-bound HRAS wild-type protein to KD value with respect to KRAS) ([2]; SPR): B (a compound having 3 or more and less than 10 is denoted as B)

CCO[C@@H]1C[C@H]2C(=O)NC3(CC(C)(C)C3)C(=O)N(C)[C@@H](C3CCCC3)C(=O)N(C)[C@H](C(=O)N(C)CC)CC(=O)N(C)[C@@H](CC)C(=O)N[C@@H]([C@@H](C)CC)C(=O)N(C)CC(=O)N(C)[C@H]3C/C=C\CCN(C3=O)[C@@H](Cc3ccc(C)cc3)C(=O)N(C)CC(=O)N[C@@H](CCc3cc(F)c(C(F)(F)F)c(F)c3)C(=O)N2C1 [PP1886]
NRAS/KRAS (ratio of KD value for NRAS to KD value for KRAS) ([1]; KD ratio, GDP-bound NRAS wild-type vs GDP-bound KRAS wild-type, SPR): A (a compound having 10 or more and less than 20 is denoted as A) | HRAS/KRAS (ratio of KD value for HRAS to KD value for KRAS) ([2]; KD ratio, GDP-bound HRAS wild-type vs GDP-bound KRAS wild-type, SPR): B (a compound having 3 or more and less than 10 is denoted as B)

CCCN1C(=O)CN(C)C(=O)CN(C)C(=O)[C@H]([C@@H](C)CC)NC(=O)[C@H](CC(C)C)N(C)C(=O)C[C@@H](C(=O)N2CCOCC2)N(C)C(=O)[C@H](C2CCCC2)N(C)C(=O)C2(CCCC2)NC(=O)[C@@H]2C[C@@H](O)CN2C(=O)[C@H](CCc2ccc(C(F)(F)F)c(Cl)c2)NC(=O)CN(C)C(=O)[C@@H]1Cc1ccc(C(F)(F)F)cc1 [PP0241] ([NMeL]I[Sar][Sar][NPrPhe(4-CF3)][Sar][hPhe(3-Cl-4-CF3)][Hyp][Ac5c][NMeGly(cPent)][NMeD]-Morpholide; lactam N-11)
NRAS/KRAS (ratio of KD for GDP-bound NRAS wild-type to KD for KRAS) ([1]; SPR): B (a compound having 3 or more and less than 10 is denoted as B) | HRAS/KRAS (ratio of KD for GDP-bound HRAS wild-type to KD for KRAS) ([2]; SPR): C (A compound having a KD ratio of 0.1 or more and less than 3 is denoted as C)

CCCCN1C(=O)CN(C)C(=O)CN(C)C(=O)[C@H]([C@@H](C)CC)NC(=O)[C@H](CC(C)C)N(C)C(=O)C[C@@H](C(=O)N2CCOCC2)N(C)C(=O)[C@H](C2CCCC2)N(C)C(=O)C2(CCCC2)NC(=O)[C@@H]2CCCN2C(=O)[C@H](CCc2ccc(C(F)(F)F)c(Cl)c2)NC(=O)CN(C)C(=O)[C@@H]1Cc1ccc(C(F)(F)F)cc1 [PP0120] ([NMeL]I[Sar][Sar][X17][Sar][hPhe(3-Cl-4-CF3)]P[Ac5c][NMeGly(cPent)][NMeD]-Morpholide; lactam N-11)
NRAS/KRAS (ratio of KD for GDP-bound NRAS wild-type to KD for KRAS) ([1]; SPR): B (a compound having 3 or more and less than 10 is denoted as B) | HRAS/KRAS (ratio of KD for GDP-bound HRAS wild-type to KD for KRAS) ([2]; SPR): C (A compound having a KD ratio of 0.1 or more and less than 3 is denoted as C)

CCCN1C(=O)[C@@H]2CCN2C(=O)CN(C)C(=O)[C@H](C(CC)CC)NC(=O)[C@H](CC(C)C)N(C)C(=O)C[C@@H](C(=O)N2CCOCC2)N(C)C(=O)[C@H](C2CCCC2)N(C)C(=O)C2(CCCC2)NC(=O)[C@@H]2CCCN2C(=O)[C@H](CCc2cc(F)c(C(F)(F)F)c(F)c2)NC(=O)CN(C)C(=O)[C@@H]1Cc1ccc(C(F)(F)F)cc1 [PP0804] ([NMeL][Nva(3-Et)][Sar][Aze][NPrPhe(4-CF3)][Sar][hPhe(3,5-F2-4-CF3)]P[Ac5c][NMeGly(cPent)][NMeD]-Morpholide; lactam N-11)
NRAS/KRAS (ratio of KD value with respect to GDP-bound NRAS wild-type protein to KD value with respect to KRAS) ([1]; SPR): C (A compound having a KD ratio of 0.1 or more and less than 3 is denoted as C) | HRAS/KRAS (ratio of KD value with respect to GDP-bound HRAS wild-type protein to KD value with respect to KRAS) ([2]; SPR): B (a compound having 3 or more and less than 10 is denoted as B)

CCO[C@@H]1C[C@H]2C(=O)NC3(CC(C)(C)C3)C(=O)N(C)[C@@H](C(CC)CC)C(=O)N(C)[C@H](C(=O)N3CCCCC3)CC(=O)N(C)[C@H]3CCC/C=C/c4ccc(cc4)C[C@@H](C(=O)N(C)CC(=O)N[C@@H](CCc4ccc(Cl)c(Cl)c4)C(=O)N2C1)N1CC/C=C\C[C@@H](C1=O)N(C)C(=O)CN(C)C(=O)[C@H]([C@@H](C)CC)NC3=O [PP2953]
NRAS/KRAS (ratio of KD value with respect to GDP-bound NRAS wild-type protein to KD value with respect to KRAS) ([1]; class symbols): AA (a compound having 20 or more is denoted as AA) | HRAS/KRAS (ratio of KD value with respect to GDP-bound HRAS wild-type protein to KD value with respect to KRAS) ([2]; class symbols): A (a compound having 10 or more and less than 20 is denoted as A)
